From patent US9023809B2, “Phenylalanine dipeptide derivatives, compositions and use thereof” (The Key Laboratory of Chemistry For Natural Products of …, priority 2008, dated 2015)
Converted amounts (≈) assume the structure as drawn. Where a SMILES comes first, the peptide text is derived from it. [ ]: non-standard residue; d: D form. The star is where a group is joined. Phe(4-NO2) = N[C@@H](Cc1ccc([N+](=O)[O-])cc1)C(=O)O; 4Abz = Nc1ccc(C(=O)O)cc1; Propionyl = CCC(=O)*; Bz = O=C(c1ccccc1)*

Experiments:
HBV DNA replication = assay: In vitro anti-HBV: inhibition of HBV DNA replication in 2.2.15 cells (dot blot); format: cell-based, hepatitis B virus; conditions: day 8, dot blot; for IC50: Hepatitis B virus, 192 h
Protocol: (§1) Cell control wells were simultaneously set up. […] IC50 and SI were calculated, respectively.

2.2.15 cells = assay: Cytotoxicity (TC50, median toxic concentration) in 2.2.15 cells; format: cell-based
Protocol: as §1

| SMILES | IC50 (HBV DNA replication) | TC50 (2.2.15 cells) | melting point | Inhibition of DNA Replication IC50 (HBV DNA replication) |
| --- | --- | --- | --- | --- |
| COC(=O)[C@H](Cc1ccc(OC)cc1)NC(=O)[C@H](Cc1ccccc1)NC(=O)c1ccccc1 [Example 71, methyl N-(N-benzoyl-L-phenylalanyl)-O-methyl-L-tyrosinate] (Bz-Phe-Tyr(Me)-OMe) | 6.62 µg/mL (≈ 14.4 µM) | 388.03 µg/mL (≈ 843 µM) | – | – |
| COC(=O)[C@H](Cc1ccc(O)cc1)NC(=O)[C@H](Cc1ccccc1)NC(=O)c1ccccc1 [Example 04, methyl N-(N-benzoyl-L-phenylalanyl)-L-tyrosinate] (Bz-Phe-Tyr-OMe) | 51.8 µg/mL (≈ 116 µM) | 450.67 µg/mL (≈ 1010 µM) | 184 to 186 °C | – |
| CN(C)CCOc1ccc(C(=O)N[C@@H](Cc2ccccc2)C(=O)N[C@H](CO)Cc2ccccc2)cc1 [Example 77, N-[N-4-(2-dimethylamino-ethoxyl)-benzoyl-L-phenylalanyl]-L-phenylalaninol] | – | 160.25 µg/mL (≈ 327 µM) | – | 13.51 µg/mL |
| Cc1cccc(C(=O)N[C@@H](Cc2ccccc2)C(=O)N[C@H](CO)Cc2ccccc2)c1 [Example 05, N-(N-3-methyl-benzoyl-L-phenylalanyl)-L-phenylalaninol] | 25.2 µg/mL (≈ 60.5 µM) | 77.04 µg/mL (≈ 185 µM) | 177 to 178.5 °C | – |
| COc1ccc(C[C@H](NC(=O)[C@H](Cc2ccccc2)NC(=O)c2ccccc2)C(=O)[O-])cc1.[Na+] [Example 79, N-(N-benzoyl-L-phenylalanyl)-O-methyl-L-tyrosine sodium salt] (Bz-Phe-Tyr(Me)-OH) | 9.59 µg/mL | 86.23 µg/mL | – | – |
| O=C(N[C@@H](Cc1ccc(O)cc1)C(=O)N[C@H](CO)Cc1ccccc1)c1ccc(F)cc1 [Example 24, N-(N-4-fluoro-benzoyl-L-tyrosyl)-L-phenylalaninol] | 96 µg/mL (≈ 220 µM) | 396.81 µg/mL (≈ 909 µM) | 194.5 to 195.5 °C | – |
| O=C(N[C@@H](Cc1ccc([N+](=O)[O-])cc1)C(=O)N[C@@H](Cc1ccccc1)C(=O)O)c1ccccc1 [Example 88, N-(N-benzoyl-4-nitro-L-phenylalanyl)-L-phenylalanine] (Bz-[Phe(4-NO2)]-Phe-OH) | 25 µg/mL (≈ 54.2 µM) | 388.03 µg/mL (≈ 841 µM) | – | – |
| CCC(=O)Nc1ccc(C(=O)N[C@@H](Cc2ccccc2)C(=O)N[C@@H](Cc2ccc([N+](=O)[O-])cc2)C(=O)OC)cc1 [Example 38, methyl N-[N-(4-propionamido-benzoyl)-L-phenylalanyl]-4-nitro-L-phenylalaninate] ({Propionyl-4Abz}-Phe-[Phe(4-NO2)]-OMe) | 2.39 µg/mL (≈ 4.37 µM) | 80.13 µg/mL (≈ 147 µM) | 221 to 223 °C | – |
| COC(=O)[C@H](Cc1ccc(OC(C)=O)cc1)NC(=O)[C@H](Cc1ccc(NC(C)=O)cc1)NC(=O)c1ccc(C)cc1 [Example 68, methyl N-[N-(4-methyl-benzoyl)-4-acetamido-L-phenylalanyl]-O-acetyl-L-tyrosinate] | 13.1 µg/mL (≈ 23.4 µM) | 388.03 µg/mL (≈ 693 µM) | 222 to 223 °C | – |
| O=C(N[C@@H](Cc1ccccc1)C(=O)N[C@H](CO)Cc1ccccc1)c1ccc(CN2CCOCC2)cc1 [Example 51, N-{N-[4-(4-morpholinyl)methyl-benzoyl]-L-phenylalanyl}-L-phenylalaninol] | 6.98 µg/mL (≈ 13.9 µM) | 78.52 µg/mL (≈ 157 µM) | 183 to 184.5 °C | – |
| O=C(N[C@@H](Cc1ccccc1)C(=O)N[C@H](CO)Cc1ccccc1)c1ccc(Cl)cc1 [Example 07, N-(N-4-chloro-benzoyl-L-phenylalanyl)-L-phenylalaninol] | 1.02 µg/mL (≈ 2.33 µM) | 28.74 µg/mL (≈ 65.8 µM) | 211.5 to 214 °C | – |
| COC(=O)[C@H](Cc1ccccc1)NC(=O)[C@H](Cc1ccc(OC(C)=O)c(NC(C)=O)c1)NC(=O)c1ccccc1 [Example 63, methyl N-(N-benzoyl-O-acetyl-3-acetamido-L-tyrosyl)-L-phenylalaninate] | 53.1 µg/mL (≈ 97.4 µM) | 358.02 µg/mL (≈ 656 µM) | – | – |
| CCCCOc1ccc(C[C@H](NC(=O)[C@H](Cc2ccccc2)NC(=O)c2ccccc2)C(=O)OC)cc1 [Example 72, methyl N-(N-benzoyl-L-phenylalanyl)-O-n-butyl-L-tyrosinate] | 87.5 µg/mL (≈ 174 µM) | 577.35 µg/mL (≈ 1150 µM) | 177 to 178 °C | – |
| CN(C)Cc1ccc(C(=O)N[C@@H](Cc2ccccc2)C(=O)N[C@H](CO)Cc2ccccc2)cc1 [Example 49, N-[N-(4-dimethylaminomethyl-benzoyl)-L-phenylalanyl]-L-phenylalaninol] | 7.28 µg/mL (≈ 15.8 µM) | 86.23 µg/mL (≈ 188 µM) | – | – |
| COC(=O)[C@H](Cc1ccccc1)NC(=O)[C@H](Cc1ccccc1)N(C(C)=O)C(=O)c1ccccc1 [Example 57, methyl N-(N-benzoyl-acetyl-L-phenylalanyl)-L-phenylalaninate] | 59.5 µg/mL (≈ 126 µM) | 451.20 µg/mL (≈ 955 µM) | 221 to 222 °C | – |
| CC(=O)OC[C@H](Cc1ccccc1)NC(=O)[C@H](Cc1ccccc1)NC(=O)c1ccccc1 [Example 55, N-(N-benzoyl-L-phenylalanyl)-O-acetyl-L-phenylalaninol] | 4.96 µg/mL (≈ 11.2 µM) | 53.42 µg/mL (≈ 120 µM) | – | – |
| COC(=O)[C@H](Cc1ccccc1)NC(=O)[C@H](Cc1ccc(O)cc1)NC(=O)c1ccccc1Cl [Example 23, methyl N-(N-2-chloro-benzoyl-L-tyrosyl)-L-phenylalaninate] | 52 µg/mL (≈ 108 µM) | 240.38 µg/mL (≈ 500 µM) | 175.5 to 177.5 °C | – |

| SMILES | IC50 (HBV DNA replication) | TC50 (2.2.15 cells) | melting point | Inhibition of DNA Replication IC50 (HBV DNA replication) |
| --- | --- | --- | --- | --- |
| CC(=O)Nc1ccc(C[C@H](NC(=O)c2ccccc2)C(=O)N[C@H](COC(C)=O)Cc2ccccc2)cc1 [Example 54, N-(N-benzoyl-4-acetamido-L-phenylalanyl)-O-acetyl-L-phenylalaninol] | 0.82 µg/mL (≈ 1.63 µM) | 43.11 µg/mL (≈ 85.9 µM) | – | – |
| COC(=O)[C@H](Cc1ccccc1)NC(=O)[C@H](Cc1ccccc1)NC(=O)c1ccc(F)cc1 [Example 03, methyl N-(N-4-fluoro-benzoyl-L-phenylalanyl)-L-phenylalaninate] | 0.63 µg/mL (≈ 1.4 µM) | 17.81 µg/mL (≈ 39.7 µM) | – | – |
| O=C(N[C@@H](Cc1ccccc1)C(=O)N[C@@H](Cc1ccccc1)C(=O)O)c1ccccc1 [Example 86, N-(N-benzoyl-L-phenylalanyl)-L-phenylalanine] (Bz-Phe-Phe-OH) | 10.6 µg/mL (≈ 25.4 µM) | 130.56 µg/mL (≈ 313 µM) | – | – |
| O=C(N[C@@H](Cc1ccccc1)C(=O)N[C@H](CO)Cc1ccccc1)c1ccc(CN2CCCC2)cc1 [Example 50, N-{N-[4-(1-pyrrolidyl)methyl-benzoyl]-L-phenylalanyl}-L-phenylalaninol] | 7.04 µg/mL (≈ 14.5 µM) | 64.15 µg/mL (≈ 132 µM) | 164 to 165 °C | – |
| CC(=O)Nc1ccc(C(=O)N[C@@H](Cc2ccccc2)C(=O)N[C@H](CO)Cc2ccccc2)cc1 [Example 39, N-[N-(4-acetamido-benzoyl)-L-phenylalanyl]-L-phenylalaninol] | 0.34 µg/mL (≈ 0.74 µM) | 14.37 µg/mL (≈ 31.3 µM) | 193 to 195 °C | – |
| COC(=O)[C@H](Cc1ccccc1)NC(=O)[C@H](Cc1ccc([N+](=O)[O-])cc1)NC(=O)c1ccccc1 [Example 12, methyl N-(N-benzoyl-4-nitro-L-phenylalanyl)-L-phenylalaninate] (Bz-[Phe(4-NO2)]-Phe-OMe) | – | 388.03 µg/mL (≈ 816 µM) | 202 to 204.5 °C | – |
| O=C(N[C@@H](Cc1ccc([N+](=O)[O-])cc1)C(=O)N[C@H](CO)Cc1ccccc1)c1ccccc1 [Example 06, N-(N-benzoyl-4-nitro-L-phenylalanyl)-L-phenylalaninol] | – | 53.42 µg/mL (≈ 119 µM) | 196 to 199 °C | – |
| O=C(N[C@@H](Cc1ccc(O)cc1)C(=O)N[C@H](CO)Cc1ccccc1)c1ccc(Cl)cc1 [Example 19, N-(N-4-chloro-benzoyl-L-tyrosyl)-L-phenylalaninol] | 103 µg/mL (≈ 228 µM) | 587.06 µg/mL (≈ 1300 µM) | – | – |
| COC(=O)[C@H](Cc1ccccc1)NC(=O)[C@H](Cc1ccc(O)cc1)NC(=O)c1ccc(F)cc1 [Example 25, methyl N-(N-4-fluoro-benzoyl-L-tyrosyl)-L-phenylalaninate] | 68.7 µg/mL (≈ 148 µM) | 574.76 µg/mL (≈ 1240 µM) | 186.5 to 189 °C | – |
| O=C(O)CCC(=O)Nc1ccc(C[C@H](NC(=O)c2ccccc2)C(=O)N[C@H](CO)Cc2ccccc2)cc1 [Example 83, N-[N-benzoyl-4-(3-carboxyl-propionamido)-L-phenylalanyl]-L-phenylalaninol] | 253 µg/mL (≈ 488 µM) | >1000 µg/mL | – | – |
| COC(=O)[C@H](Cc1ccccc1)NC(=O)[C@H](Cc1ccccc1)NC(=O)c1ccc(OCCN(C)C)cc1 [Example 78, methyl N-[N-4-(2-dimethylamino-ethoxyl)-benzoyl-L-phenylalanyl]-L-phenylalaninate] | – | 257.31 µg/mL (≈ 497 µM) | – | 54.28 µg/mL |
| O=C(N[C@@H](Cc1ccc(O)cc1)C(=O)N[C@H](CO)Cc1ccccc1)c1ccccc1Cl [Example 22, N-(N-2-chloro-benzoyl-L-tyrosyl)-L-phenylalaninol] | 106 µg/mL (≈ 234 µM) | 346.68 µg/mL (≈ 765 µM) | 168 to 169 °C | – |
| COC(=O)[C@H](Cc1ccc(O)cc1)NC(=O)[C@H](Cc1ccc([N+](=O)[O-])cc1)NC(=O)c1ccc(C)cc1 [Example 18, methyl N-(N-4-methyl-benzoyl-4-nitro-L-phenylalanyl)-L-tyrosinate] | – | 45.28 µg/mL (≈ 89.6 µM) | 213 to 215 °C | – |
| CCOC(=O)c1ccc(C(=O)N[C@@H](Cc2ccccc2)C(=O)N[C@H](CO)Cc2ccccc2)cc1 [Example 52, N-[N-(4-ethoxycarbonyl-benzoyl)-L-phenylalanyl]-L-phenylalaninol] | 24.2 µg/mL (≈ 51 µM) | 89.23 µg/mL (≈ 188 µM) | 188 to 189.5 °C | – |
| COC(=O)[C@H](Cc1ccc([N+](=O)[O-])cc1)NC(=O)[C@H](Cc1ccc([N+](=O)[O-])cc1)NC(=O)c1ccccc1 [Example 15, methyl N-(N-benzoyl-4-nitro-L-phenylalanyl)-4-nitro-L-phenylalaninate] (Bz-[Phe(4-NO2)]-[Phe(4-NO2)]-OMe) | – | 45.69 µg/mL (≈ 87.8 µM) | 220 to 221.5 °C | – |
| CN(C)c1ccc(C[C@H](NC(=O)c2ccccc2)C(=O)N[C@H](CO)Cc2ccccc2)cc1 [Example 84, N-(N-benzoyl-4-dimethylamino-L-phenylalanyl)-L-phenylalaninol] | 1.44 µg/mL (≈ 3.23 µM) | 86.23 µg/mL (≈ 194 µM) | – | – |
